This is an account of results in patent US12337004B2, “Coumarin-modified androgens for the treatment of prostate cancer” (Health Research, Inc., priority 2019, dated 2025).

“Also recorded” adds a separate entry of the source. Where a name gives a salt, the structure may show the parent alone.

One assay deals with CWR-R1 cells. Nature of the assay: MTT cell growth, CWR-R1. It is filed as cell-based, human. Conditions: six days; DHT-17C at 20 nM, DHT-3C at 20 nM. The protocol:
(§1) Identification of a 3α-oxidoreductase inhibitors: Various non-steroidal compounds were tested for anti-neoplastic activity by screening against PC-3 CaP cells. Coumarin-labeled androgens were developed to track changes in androgen metabolism pathways in response to castration or androgen metabolism inhibition using in vitro and in vivo CaP cell models.
(§2) VCaP, CWR-R1 and PC-3 cells were treated for six days with complete culture media (CM), serum-free culture media (SFM), bicalutamide (Bic) at 10 μM, the coumarin C at 20 μM, DHT at 10 nM, DHT-17C at 20 nM and DHT-3C at 20 nM (FIG. 20). […] MTT analysis was performed to compare cell growth impairment of VCaP cells treated with DHT-17C versus enzalutamide. Cells were treated with DHT-17C at 1 nM, 12 nM, 20 nM, 50 nM or 100 nM concentrations, or enzalutamide at 1 μM, 12 μM, 20 μM, 50 μM or 100 μM concentrations. […] MTT performed using ezanlutamide (20 uM) or DHT-17C (50 nM) treated mutant AR and AR-V7 positive CWR-R1 cells supported VCaP MTT data (FIG. 22).

The test system of assay [1] is KLK2. Nature of the assay: qRT-PCR of AR-regulated gene KLK2. Format: cell-based. The following applies: 24 hours; VCaP, LAPC-4, LNCaP, CWR-R1 and 22rv1 cells.
Another assay deals with T1, AR-GFP (Homo sapiens, UniProt P10275).
T1 construct: expressed in transfected cells; host or cells: VCaP, PC-3 (also LAPC-4, CWR-R1, 22Rv1, DU145)
T1 sequence (P10275 1-920): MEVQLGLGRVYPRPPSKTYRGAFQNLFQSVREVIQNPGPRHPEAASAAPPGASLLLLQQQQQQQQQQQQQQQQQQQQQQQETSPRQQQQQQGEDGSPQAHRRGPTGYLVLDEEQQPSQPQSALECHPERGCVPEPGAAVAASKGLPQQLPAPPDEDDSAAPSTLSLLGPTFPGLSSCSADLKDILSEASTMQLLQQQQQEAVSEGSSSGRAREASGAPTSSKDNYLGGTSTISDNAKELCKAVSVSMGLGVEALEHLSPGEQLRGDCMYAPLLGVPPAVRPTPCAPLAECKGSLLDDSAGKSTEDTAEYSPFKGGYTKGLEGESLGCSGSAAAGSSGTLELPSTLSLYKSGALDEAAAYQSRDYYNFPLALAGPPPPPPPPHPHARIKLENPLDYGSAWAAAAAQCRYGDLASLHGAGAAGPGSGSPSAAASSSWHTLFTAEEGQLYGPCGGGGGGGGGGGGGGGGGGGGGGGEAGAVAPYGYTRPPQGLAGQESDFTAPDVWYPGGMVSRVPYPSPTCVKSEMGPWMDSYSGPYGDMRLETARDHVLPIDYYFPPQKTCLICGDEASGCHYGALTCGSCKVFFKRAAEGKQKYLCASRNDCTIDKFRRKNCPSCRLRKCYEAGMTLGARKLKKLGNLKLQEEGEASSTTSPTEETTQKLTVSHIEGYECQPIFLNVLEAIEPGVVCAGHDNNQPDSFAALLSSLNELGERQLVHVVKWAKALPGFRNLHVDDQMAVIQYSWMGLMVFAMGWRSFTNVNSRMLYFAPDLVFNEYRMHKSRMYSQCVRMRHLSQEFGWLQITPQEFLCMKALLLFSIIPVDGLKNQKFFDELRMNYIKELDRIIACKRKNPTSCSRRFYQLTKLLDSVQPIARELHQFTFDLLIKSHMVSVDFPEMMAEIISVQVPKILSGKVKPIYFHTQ
The assay is described as follows: ImageStream nuclear co-localization with AR-GFP. It is filed as cell-based. From the text: Androgen-sensitive AR-positive LAPC-4 and VCaP, castration-recurrent and AR-positive CWR-R1 and CWR-22rv1 (22rv1), and AR-negative PC-3 and DU145 cells were transfected with either an empty pCMV expression plasmid (control) or a pCMV plasmid that encoded a wild-type AR tagged with a C-terminal green fluorescent protein (GFP; AR-GFP). AR-positive CaP cell lines were transfected with AR-GFP to assess if DHT-17C or DHT-3C co-localized with AR and translocated to the nucleus.
AR positive CaP cell lines were treated for 16 hours with androgen-free, serum-free complete media (SFM) alone, or SFM that contained 20 nM or 50 nM fluorescent-androgens or C alone. The time points were chosen to measure differences in uptake of the fluorescent-androgens and nuclear or cytosolic localization of the fluorescent-androgens and/or AR-GFP.
Serum-free complete media (SFM)^2 was used to androgen deprive cells.

For the next assay, the system named is LNCaP cells. The assay is described as follows: MTT cell growth, LNCaP. Format: cell-based. Conditions: six days; data not shown.
Assay [2] deals with KLK2. The assay is described as follows: Western blot of AR-regulated protein expression. Format: cell-based. The following applies: CaP cell lines.
The next assay deals with LAPC-4 cells. The assay is described as follows: MTT cell growth, LAPC-4. It is filed as cell-based. Conditions: six days; data not shown.
A further assay deals with CaP cell lines. Nature of the assay: MTT CaP cell growth during androgen deprivation, cell line panel. Format: cell-based. Conditions: SFM with DHT-3C, six days. From the text:
MTT analysis was used to assess if treatment with DHT-3C facilitated CaP cell growth during androgen deprivation. […] SFM with DHT-3C stimulated growth in 3 of 5 cell lines (FIG. 25).

The next assay concerns VCaP cells. Nature of the assay: MTT cell growth, VCaP. Format: cell-based. The protocol:
as §1, §2

The target of a further assay is T2, AR-V2-GFP (Homo sapiens, UniProt P10275).
T2 construct: stably expressed AR170 LBD only with splice variant V2 (AR-V2-GFP); expressed in transfected cells; host or cells: VCaP, PC-3
T2 sequence (P10275 1-388 isoform P10275-2): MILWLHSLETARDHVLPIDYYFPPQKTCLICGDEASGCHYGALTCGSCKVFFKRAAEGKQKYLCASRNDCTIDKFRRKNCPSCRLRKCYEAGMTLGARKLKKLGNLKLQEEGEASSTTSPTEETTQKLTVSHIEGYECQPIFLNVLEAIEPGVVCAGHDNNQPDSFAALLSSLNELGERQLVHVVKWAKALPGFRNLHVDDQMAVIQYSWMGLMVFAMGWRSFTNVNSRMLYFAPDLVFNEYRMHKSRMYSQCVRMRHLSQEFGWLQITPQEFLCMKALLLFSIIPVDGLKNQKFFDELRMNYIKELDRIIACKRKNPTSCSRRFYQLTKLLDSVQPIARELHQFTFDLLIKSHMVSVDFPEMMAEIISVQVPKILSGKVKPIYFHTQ
Nature of the assay: ImageStream co-localization with AR-V2-GFP. Format: cell-based. The following applies: VCaP and PC-3 cells that stably expressed AR-V2-GFP; hydrochloride. The protocol:
(§3) ImageStream studies were repeated using VCaP and PC-3 cells that stably expressed AR-V2 (splice-variant that lacked the N-terminus) with C-terminal GFP (AR-V2-GFP). […] ImageStream data was confirmed using immunoprecipation (IP) studies performed with a DHT-targeted antibody.
(§4) Serum-free complete media (SFM)^2 was used to androgen deprive cells. PC-3 cells that contained empty plasmid were treated with SFM alone, SFM with C or SFM with DHT-3C.

In assay [3] the test system is AR- or AR-GFP negative PC-3 cells. The assay is described as follows: ImageStream nuclear localization in AR-negative PC-3 cells. It is filed as cell-based. Conditions: PC-3 cells without AR or AR-GFP (empty plasmid); hydrochloride. The protocol:
as §3, §4

The next assay relates to CRPC. Conditions: cited from earlier work.

In the case of `C[C@]12CC[C@]3(C[C@@H]1CC[C@@H]1[C@@H]2CC[C@]2(C)[C@@H](O)CC[C@@H]12)NCCc1c3c(=O)oc2c3c4c(cc12)CCCN4CCC3` [DHT-3C, (3R,5S,10S,13S,17S)-17-hydroxy-10,13-dimethyl-1,2,2′,3′,4,5,6,7,8,8′,9,9′,10,11,12,12′,13,13′,14,15,16,17-docosahydro-7′H,11′H-spiro[cyclopenta[a]phenanthrene-3,4′-pyrido[3,2,1-ij]pyrido[4′,3′:4,5]pyrano[2,3-j]quinolin]-5′(1′H)-one hydrochloride], in the assay on CWR-R1 cells, the “CWR-R1 cell growth (MTT)” value is given as “promoted”. Besides, the KLK2 transcript induction result with KLK2 [1] is “produced similar inductions of expression”. In addition, the “nuclear co-localization with AR-GFP” value is “showed nuclear co-localization between DHT-3C and AR-GFP” on AR-GFP (PC-3-AR-GFP cells, SFM); “demonstrated co-localization between DHT-3C and AR-GFP” on AR-GFP (VCaP that stably expressed AR-GFP). In addition, on AR-GFP (VCaP-AR-GFP and PC-3-AR-GFP cells), the “nuclear co-localization with AR-GFP and DRAQ5” value is recorded as “co-localized with AR-GFP”. In addition, the “LNCaP cell growth (MTT)” value in the assay with LNCaP cells is “promoted VCaP, LAPC-4, and LNCaP cell growth”. Moreover, in the assay on KLK2 [2], the “AR-regulated protein expression levels” value was “produced similar AR-regulated protein expression levels”. In addition, the “LAPC-4 cell growth (MTT)” value with LAPC-4 cells is “promoted VCaP, LAPC-4, and LNCaP cell growth”. In the assay on CaP cell lines, the “cell lines with stimulated growth” value is 3 of 5. In addition, the “VCaP cell growth (MTT)” value in the assay on VCaP cells (six days, DHT-17C at 20 nM, DHT-3C at 20 nM) is “promoted VCaP, LAPC-4, and LNCaP cell growth”. Moreover, at AR-V2-GFP, the “co-localization with AR-V2-GFP” value was “co-localized with DRAQ5 and AR-V2-GFP; also recorded: co-localized with the AR LBD”. In addition, in assay [3], the “nuclear localization in AR-negative cells” value is “did not produce nuclear fluorescence”.

Consider `CNC(=O)c1ccc(N2C(=S)N(c3ccc(C#N)c(C(F)(F)F)c3)C(=O)C2(C)C)cc1F` [enzalutamide, reference compound], for which the extension of survival in the assay on CRPC is recorded as 4.8 months. Further, in the assay with VCaP cells (enzalutamide at 1, 12, 20, 50 or 100 μM), the “VCaP cell growth impairment versus DHT-17C” value is listed as “impaired VCaP cell growth to similar extents”.
